ChEMBL document CHEMBL3351798, “Discovery of the CCR1 antagonist, BMS-817399, for the treatment of rheumatoid arthritis” (J Med Chem, 2014)
Active and inactive are the calls of the source. The calls are words filed in the database; no cut-off is given here.

How the values were obtained:
[1] = target: T1, Nuclear receptor subfamily 1 group I member 2 (Homo sapiens, UniProt O75469); experiment: Transactivation of human full-length PXR transfected in human HepG2 cells after 24 hrs by luciferase reporter gene assay; type: cell-based
T1 sequence (O75469 whole entry): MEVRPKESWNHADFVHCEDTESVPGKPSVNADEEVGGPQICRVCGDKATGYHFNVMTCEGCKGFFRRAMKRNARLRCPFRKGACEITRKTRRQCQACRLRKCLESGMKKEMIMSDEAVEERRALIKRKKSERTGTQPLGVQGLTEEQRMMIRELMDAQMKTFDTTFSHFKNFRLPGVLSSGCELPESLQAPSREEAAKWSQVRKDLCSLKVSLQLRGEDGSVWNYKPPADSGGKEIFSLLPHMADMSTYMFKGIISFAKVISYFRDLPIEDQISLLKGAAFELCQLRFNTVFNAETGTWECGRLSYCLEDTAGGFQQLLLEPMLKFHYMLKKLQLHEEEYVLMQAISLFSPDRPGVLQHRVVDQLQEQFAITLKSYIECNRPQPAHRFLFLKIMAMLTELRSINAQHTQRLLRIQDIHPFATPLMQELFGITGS

[2] = target: T2, C-C chemokine receptor type 1 (Mus musculus, UniProt P51675); experiment: Displacement of [125I]hMIP-1alpha from mouse CCR1
T2 sequence (P51675 whole entry): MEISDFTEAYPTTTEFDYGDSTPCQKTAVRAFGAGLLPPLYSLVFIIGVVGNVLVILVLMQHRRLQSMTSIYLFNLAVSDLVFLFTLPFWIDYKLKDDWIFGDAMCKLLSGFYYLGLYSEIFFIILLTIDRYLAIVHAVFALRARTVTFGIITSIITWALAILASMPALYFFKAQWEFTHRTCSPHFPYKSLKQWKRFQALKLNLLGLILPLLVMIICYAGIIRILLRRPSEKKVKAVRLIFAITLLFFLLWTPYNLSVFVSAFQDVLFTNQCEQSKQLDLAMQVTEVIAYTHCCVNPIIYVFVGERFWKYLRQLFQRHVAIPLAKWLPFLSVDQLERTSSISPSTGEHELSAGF

[3] = target: T3, C-C chemokine receptor type 1 (Homo sapiens, UniProt P32246); experiment: Antagonist activity at CCR1 receptor in human whole blood assessed as blocked of LKN1-mediated CD11b upregulation preincubated for 1 hr
T3 sequence (P32246 whole entry): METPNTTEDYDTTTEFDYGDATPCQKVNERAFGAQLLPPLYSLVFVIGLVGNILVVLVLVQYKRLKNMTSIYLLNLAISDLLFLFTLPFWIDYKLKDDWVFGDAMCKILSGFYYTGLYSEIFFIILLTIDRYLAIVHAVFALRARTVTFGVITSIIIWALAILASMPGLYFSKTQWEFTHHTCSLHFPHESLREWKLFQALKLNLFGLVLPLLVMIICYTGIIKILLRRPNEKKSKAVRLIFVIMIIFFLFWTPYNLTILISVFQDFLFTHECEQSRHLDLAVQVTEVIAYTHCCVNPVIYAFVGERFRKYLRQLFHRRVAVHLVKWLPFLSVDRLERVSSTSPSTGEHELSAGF

[4] = Bioavailability in mouse at 5 mg/kg; type: ADME, organism-based; settings: in vivo
[5] = Bioavailability in rat at 5 mg/kg; type: ADME, organism-based; settings: in vivo
[6] = target: C-C chemokine receptor type 2 (Homo sapiens) (UniProt P41597); experiment: Binding affinity to CCR2 receptor (unknown origin)
C-C chemokine receptor type 2 (Homo sapiens), sequence (P41597 whole entry, looked up): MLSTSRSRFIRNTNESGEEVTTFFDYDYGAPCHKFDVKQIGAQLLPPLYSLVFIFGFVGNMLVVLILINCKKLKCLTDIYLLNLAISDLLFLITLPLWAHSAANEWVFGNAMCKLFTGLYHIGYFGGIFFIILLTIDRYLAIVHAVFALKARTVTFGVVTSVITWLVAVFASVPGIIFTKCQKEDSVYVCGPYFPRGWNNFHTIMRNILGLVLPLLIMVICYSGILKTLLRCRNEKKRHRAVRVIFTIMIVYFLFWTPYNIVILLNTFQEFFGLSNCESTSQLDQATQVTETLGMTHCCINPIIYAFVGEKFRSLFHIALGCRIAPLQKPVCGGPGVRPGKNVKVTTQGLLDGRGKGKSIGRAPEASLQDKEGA

[7] = target: T4, C-C chemokine receptor type 4 (Homo sapiens) (UniProt P51679); experiment: Binding affinity to CCR4 receptor (unknown origin)
T4 sequence (whole entry): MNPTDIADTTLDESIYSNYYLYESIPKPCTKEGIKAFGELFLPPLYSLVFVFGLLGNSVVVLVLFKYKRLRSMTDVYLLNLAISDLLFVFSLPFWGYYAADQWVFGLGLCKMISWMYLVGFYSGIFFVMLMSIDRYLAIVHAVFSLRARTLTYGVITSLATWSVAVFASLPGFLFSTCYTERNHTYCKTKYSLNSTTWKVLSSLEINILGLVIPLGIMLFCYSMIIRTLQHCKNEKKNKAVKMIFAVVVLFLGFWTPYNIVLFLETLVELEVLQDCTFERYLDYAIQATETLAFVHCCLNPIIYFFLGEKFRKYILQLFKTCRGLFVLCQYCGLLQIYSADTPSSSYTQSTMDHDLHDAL

[8] = target: T5, C-X-C chemokine receptor type 2 (Homo sapiens) (UniProt P25025); experiment: Binding affinity to CXCR2 receptor (unknown origin)
T5 sequence (whole entry): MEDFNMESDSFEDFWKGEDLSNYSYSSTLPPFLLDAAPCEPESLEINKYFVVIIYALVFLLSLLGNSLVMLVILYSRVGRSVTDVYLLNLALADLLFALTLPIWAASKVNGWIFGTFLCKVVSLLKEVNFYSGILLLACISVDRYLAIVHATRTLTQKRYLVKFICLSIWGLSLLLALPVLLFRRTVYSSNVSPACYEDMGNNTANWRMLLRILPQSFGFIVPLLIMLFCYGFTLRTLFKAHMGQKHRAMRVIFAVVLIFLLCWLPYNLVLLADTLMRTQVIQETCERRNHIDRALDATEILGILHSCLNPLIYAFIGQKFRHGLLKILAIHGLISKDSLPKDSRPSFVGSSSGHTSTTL

[9] = target: T6, C-X-C chemokine receptor type 3 (Homo sapiens) (UniProt P49682); experiment: Binding affinity to CXCR3 receptor (unknown origin)
T6 sequence (whole entry): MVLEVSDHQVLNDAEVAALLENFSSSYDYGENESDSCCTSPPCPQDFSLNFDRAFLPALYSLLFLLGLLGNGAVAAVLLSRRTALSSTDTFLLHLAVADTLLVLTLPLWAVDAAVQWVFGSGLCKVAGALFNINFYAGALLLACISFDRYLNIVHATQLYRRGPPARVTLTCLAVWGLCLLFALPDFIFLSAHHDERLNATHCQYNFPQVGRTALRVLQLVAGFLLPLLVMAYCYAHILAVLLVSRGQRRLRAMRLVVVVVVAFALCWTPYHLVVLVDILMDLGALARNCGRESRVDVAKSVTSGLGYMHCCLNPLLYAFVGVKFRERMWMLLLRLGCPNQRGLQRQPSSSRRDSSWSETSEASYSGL

[10] = target: T7, C-X-C chemokine receptor type 5 (Homo sapiens) (UniProt P32302); experiment: Binding affinity to CXCR5 receptor (unknown origin)
T7 sequence (whole entry): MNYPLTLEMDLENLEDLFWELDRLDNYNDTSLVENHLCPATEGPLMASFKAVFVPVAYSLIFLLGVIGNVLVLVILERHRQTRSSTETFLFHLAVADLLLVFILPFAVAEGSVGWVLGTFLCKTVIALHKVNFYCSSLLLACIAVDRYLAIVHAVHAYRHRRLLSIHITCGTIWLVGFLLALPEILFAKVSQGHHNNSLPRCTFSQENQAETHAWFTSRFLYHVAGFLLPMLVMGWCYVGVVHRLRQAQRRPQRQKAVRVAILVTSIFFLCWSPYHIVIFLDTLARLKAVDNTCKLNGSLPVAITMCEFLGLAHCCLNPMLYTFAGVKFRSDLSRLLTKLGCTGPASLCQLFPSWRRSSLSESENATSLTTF

[11] = species: Homo sapiens; experiment: Inhibition of Ca+ channel (unknown origin)

CC(C)[C@@H](NC(=O)NCC(C)(C)O)C(=O)N1CC[C@](O)(c2ccc(Cl)cc2)C(C)(C)C1 [BMS-817399] showed an EC50 [1] of over 25 µM, an IC50 [2] of over 50 µM and an IC50 [3] of 0.042 µM. The bioavailability [4] was 79%, the bioavailability [5] was 46% and the Activity [6] was “inactive”. For the same molecule, the Activity [7] was “inactive”, the Activity [8] was “inactive” and the Activity [9] was “inactive”. The Activity [10] was “inactive” and the inhibition [11] was “inactive”.
